Experimental data taken from patent publication US9351971B2, “Substituted 2,2′-biphenazines for treating diseases” (Eutropics Pharmaceuticals, Inc., priority 2010, dated 2016).
Several values for one entry are separate records, joined by “and”; a condition that tells them apart may be missing. Identical values can stand only once. Entries after “also recorded” stand apart in the source; their conditions may differ. Like-named read-outs stand apart in the source and are kept apart here. Each block holds one compound with its values, some of them ahead of it.

Legend:
Mcl-1 = molecular target: T1, Mcl-1 (Homo sapiens, UniProt Q07820); test: Fluorescence polarization assay, Bim BH3 peptide binding to GST-Mcl-1
T1 construct: made in house; host or cells: E. coli
Excerpt: (§1) A nineteen amino acid peptide, corresponding to the BH3 domain of Bim, with the sequence FITC-GGGIAQELRRIGDEFNAY (SEQ ID NO: 1) was labeled with the tluorophore FITC according to the manufacturer's instructions (Molecular Probes, Eugene, Oreg.). This sequence was identified as being able to bind to purified Bcl-xL protein (Sattler et al. (1997) Science 275(5302): 983-86) and to have biological activity in cells (Holinger et al. J. Biol. Chem. 274; 13298-1330).
(§2) In addition, recombinant GST -Mcl-1 and GST-Bcl-xL fusion proteins were generated in E.coli and purified using glutathione-sepharose beads using conventional techniques known to those skilled in the fields of biochemistry and molecular biology, (methods for preparation are described in Strategies for Protein Purification and Characterization, Marshak, D, Kadonga, J, Burgess R, Knuth, M, Brennan, W, Sue-Hwa, L, CSH press, Cold Spring Harbor, N.Y.). Binding of the recombinant proteins to the fluorescent Bim BH3 domain was confirmed by titration of increasing concentrations of the recombinant proteins against a constant amount of labeled Bim peptide (16.65 nM). Quantitation of binding was accomplished by FP assay with mP measurements made on the Analyst-GT reader (Molecular Devices, Sunnyvale, Calif.).
Further, the ability of compound A to disrupt the interaction between the fluorescent Bim BH3 peptide and the two fusion proteins was assessed using a fluorescence polarization assay. The Bim peptide (in solution at 4 nano-Molar) and either GST-Mcl-1 (in solution at 12.5 nM) or GST-Bcl-xL (in solution at 11.8 nM) were first combined together in phosphate buttered saline buffer, and then the compound solution in DMSO was added to final concentrations ranging from 10 μM to 0.1 nM). Normally the unbound Bim polypeptide results in polarization of 5 mP units. Upon binding of the GST-Bcl-xL and GST-Mcl-1 fusion protein, polarization increased to 100 mP units.
(§3) Experiments are performed using the fluorescence polarization assay as described in Example 2. Either Bcl-xL or Mcl-1 fusion proteins were titrated and maximum mp shift indicate binding concentrations for drug titration studies, as described in Example 2. Compound II-19, was titrated from 10 μM to 0.1 nM in 2 fold serial dilution into the peptide/protein solution. The IC50 for blocking each BH3 peptide from Mcl-1 are assessed using FP, as described in Example 2.
as §3, with “Either GST-Bcl-xL” for “Either Bcl-xL”, “or GST-Mcl-1” for “or Mcl-1”, “Compound II-20,” for “Compound II-19,”, “in 2-fold” for “in 2 fold”

[1] = system: NCI-H929 multiple myeloma cell line; test: Cell viability MTS assay, NCI-H929; assay type: cell-based; conditions: Homo sapiens, 48 hours
Experimental: (§4) The lymphoid derived cell lines DHL-6 and DHL-10 were obtained from Anthony Letai of the Dana Father Cancer Research Institute, Boston, Mass. The […] derived cell line NCP-H929 was obtained irons, the NIH/NCI cell repository. AML-3 cells were obtained from Dr. Michael Andreef (MD Anderson Cancer Center, Houston, Tex.). Cells were grown in RPMI 1640 medium (GIBCO-BRL) supplemented with Pen-strep-glutamine (Gibco 10378) and 5% fetal bovine serum.
(§5) Cells were expanded in tissue culture in appropriate media and then subcultured into 96-well plates at a seeding density of 20,000-40,000 cells per well, and cells were treated with one or more compounds that were titrated info appropriate medium with FCS. Cell lines were treated with compound A at concentrations ranging from 25 μM to 25 nM. The BH3-mimetic obatoclax (Nguyen M et al. (2007), Proc. Natl. Acad. Sci. USA 104:19512-19517) was also tested against the SUDHL-6, SUDHL-10, and NCI-H929 cell lines. Cells were treated for 48 hours and scored for viability using the MTS assay (Promega). Growth inhibition was indicated as a percentage of control cell growth. Growth was determined by measuring the A570 (control cells)—A570 (treated cells)/A570 (control cells). EC50 values were calculated using Graphpad Prizm software.

[2] = system: SUDHL-6 lymphoid cell line; test: Cell viability MTS assay, SUDHL-6; assay type: cell-based; conditions: Homo sapiens, SU-DHL-6, 48 hours
Experimental: as §4, §5

SUDHL-10 cell line = test: Cell viability MTS assay, SUDHL-10 (Bax/Bak deficient); assay type: cell-based, human; conditions: Homo sapiens, SU-DHL10, 48 hours, MTS assay, Bax/Bak deficient cell line
Experimental: as §4, §5

Bcl-xL = molecular target: T2, Bcl-xL (Homo sapiens, UniProt Q07817); test: Fluorescence polarization assay, Bim BH3 peptide binding to GST-Bcl-xL; conditions: Bim-BH3-FITC peptide, read-out: IC50, inhibition of Bim-BH3 peptide binding to Bcl-xL
T2 construct: made in house; host or cells: E. coli
Excerpt: as §1, §2
Further, the ability of compound A to disrupt the interaction between the fluorescent Bim BH3 peptide and the two fusion proteins was assessed using a fluorescence polarization assay. […]
(§6) Experiments are performed using the fluorescence polarization assay as described in Example 2. […] The IC50 for blocking each BH3 peptide from Mcl-1 are assessed using FP, as described in Example 2.
as §6

NCI H929 tumors = test: NCI H929 human myeloma xenograft model in mice; assay type: in vivo, mouse; conditions: bortezomib 1 mg/kg i.p. once every 3 days for 15 days; vehicle 2300 mm^3
Experimental: Cell Culture: Tumor cell line NCI H929 was cultured according to ATCC recommendations in […] containing 10% fetal bovine serum and pen-strep. On the day of implantation, cells were washed 1× with phosphate buffered saline (PBS) and harvested via centrifugation. Cells were pelleted (5 min at 1000 rpm, RT) then resuspended in serum-free matrigel and kept on ice until implantation.
Tumor Cell Implantation: The cell line was implanted via subcutaneous injection on the right rear flank at a volume of 200 μl containing 3×10^7 cells per mouse; the injection site was cleaned using alcohol before and after injection to prevent any infection.
Tumor Assessment: Beginning 1 week post cell implantation all animals were weighed and tagged and tumors were measured and body weights taken 3 times weekly (length×width×height) on Monday, Wednesday, and Friday for the duration of study. Once an average tumor volume of 100-200 mm^3 was reached, animals were randomized and placed into 4 treatment groups of a minimum of 10 mice per group based on tumor size. Randomization was determined by tumor volume (length×width×height)[…] for all of the mice and average volume was calculated using a average function in Excel (Microsoft Professional).
Treatment: The study involved 4 groups of 10 animals per group. Animals in all dose groups were weighed on days of tumor measurement. All doses were administered i.p. at 10 mL/kg. The Bortezormib (1 mg/kg) group was once every 3 days for 15 days. The mice receiving vehicle and compound II-19 were dosed every second day. Compound II-19 was formulated in 1% DMSO, 10 mM Tris pH 8, 30% hydroxypropyl-beta-cyclodextrin; this vehicle was used as the “vehicle” control. Bortezomib was formulated in 30% propylene glycol, 5% Tween 80, 3.3% dextrose in water, pH 4, 1% DMSO.

[3] = Dose escalation study in SCID mice; assay type: in vivo; conditions: 60 mg/kg
Experimental: Compound A was tested in SCID mice at SRI International, Menlo Park, Calif. A dose escalation study determined that that the high dose of 60 mg/kg was well-tolerated and could be safely used for the xenograft study for all 3 test articles.

CCRF-CEM cells = test: CCRF-CEM leukemia xenograft study in SCID mice; assay type: in vivo, mouse; conditions: 60 mg/kg I.P. 5x/week
Experimental: The T Lymphoblastic Leukemic Cell Line CCRF-CEM was purchased from American Type Culture Consortium (ATCC). These cells were maintained in RPMI-1640 medium supplemented with 10% of fetal bovine serum, 2 mM glutamine, and 1 mM sodium pyruvate. The cells were cultured at 37° C. in 95% air/5% CO2 and 100% humidity. Medium in the culture was changed every 48 h and cells were passaged weekly.
For cell implantation to mice, cells were harvested by centrlfugation. Cell pellets were resuspended in PBS and counted using a hemacytometer and Trypan Blue dye to measure the number of viable cells in the suspension. The harvested cells were washed once with PBS and resuspended in serum-free medium at a density of 1×10^7 cells/100 μl.
For this xenograft study, animals were divided into 4 groups of 10 mice each. Groups were treated with test compounds by IP Injection at 60 mg/kg with or vehicle control.
Mice were inoculated with the CCRF-CEM cells (10,000,000 cells) were by tail vein injection. The cell suspensions had the tendency to form clumps. Therefore, during cell inoculation, the cell suspensions had to be mixed well before drawing into the syringe. Gauge 28 needles were used for the injection.
Test articles were dissolved in a mixture of DMSO/Cremophor/water (10:18:72) and administered to the animals in 100 μl aliquots 5× per week beginning 7 days after cells were transplanted into mice. Control dosage was performed under the same schedule.
Throughout the entire study, clinical observations were conducted daily for signs of leukemia development, including lethargy, ruffled fur, lack of responsiveness to stimuli, weight loss, and becoming moribund. On Day 21 after cell inoculation, blood samples were drawn from all groups. The white blood cells of all the blood samples were measured with a Nucleo Counter (ChemMetec, Denmark). […]
After 14 days of treatment, blood samples were taken from all the mice via orbital bleeding while mice were anesthetized using isoflurane inhalation. […] The number of white blood cells was then counted by standard methods.

[4] = Pharmacokinetics of compound A in the mouse; assay type: in vivo; conditions: for plasma clearance: i.p.; for half-life: plasma, ip
Experimental: Pharmacokinetic studies were conducted on compound A to assess plasma clearance and distribution in the mouse. Compound A was administered i.p. (as in the xenograft study) at 10 mg/kg.
Pharmacokinetic studies were conducted on compound A to assess plasma clearance and distribution in the mouse. Compounds were administered i.p. (as in the xenograft study) at 19 mg/kg.

Microsome stability = assay type: in vitro ADME
[5] = fluorescent polarisation assay of Examples 2 and 3, read-out: IC50, inhibition of MCL1
[6] = fluorescence polarization, Bim-BH3-FITC peptide, GST-Mcl-1, read-out: IC50, inhibition of Bim-BH3 peptide binding to Mcl-1

T1 sequence (Q07820 whole entry): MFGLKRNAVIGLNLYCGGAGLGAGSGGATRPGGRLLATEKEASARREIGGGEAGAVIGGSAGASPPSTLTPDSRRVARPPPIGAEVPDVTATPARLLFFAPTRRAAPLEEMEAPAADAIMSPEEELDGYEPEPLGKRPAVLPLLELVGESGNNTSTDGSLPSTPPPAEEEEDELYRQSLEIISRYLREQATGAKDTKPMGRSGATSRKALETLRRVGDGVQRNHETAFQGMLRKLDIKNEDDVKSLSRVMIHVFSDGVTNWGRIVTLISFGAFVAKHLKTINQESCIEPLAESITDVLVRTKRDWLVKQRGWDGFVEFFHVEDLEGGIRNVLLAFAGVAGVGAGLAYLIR
T2 sequence (Q07817 whole entry): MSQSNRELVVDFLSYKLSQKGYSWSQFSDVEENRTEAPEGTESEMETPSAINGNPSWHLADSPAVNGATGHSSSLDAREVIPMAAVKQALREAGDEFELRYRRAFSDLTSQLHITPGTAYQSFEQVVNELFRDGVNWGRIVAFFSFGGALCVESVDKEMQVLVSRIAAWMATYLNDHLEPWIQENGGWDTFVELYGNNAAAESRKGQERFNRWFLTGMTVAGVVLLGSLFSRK

IC50 (Mcl-1; [5]): < 50 µM
SMILES: COc1cc(-c2ccc(Nc3ccc(C)cc3C(=O)O)c(OC)c2)ccc1Nc1ccccc1C(=O)O [Ic-7, 2-((4′-((2-carboxyphenyl)amino)-3,3′-dimethoxy-[1,1′-biphenyl]-4-Yl)amino)-5-methylbenzoic acid]

IC50 (Mcl-1; [5]): < 50 µM
SMILES: COc1cc(-c2ccc(Nc3cccc(C(=O)O)c3)c(OC)c2)ccc1Nc1cccc(C(=O)O)c1 [Ic-1, 3,3′-((3,3′-dimethoxy-[1,1′-bipenyl]-4,4′-diyl)bis(azanediyl))dibenzoic acid]

IC50 (Mcl-1; [5]): < 50 µM
SMILES: COc1cc(-c2ccc(Nc3cnccc3C(=O)O)c(OC)c2)ccc1Nc1ccccc1C(=O)O [Ic-8]

IC50 (Mcl-1; [5]): < 50 µM
SMILES: O=C(O)c1ccccc1Nc1ccc(-c2ccc(Nc3ccccc3C(=O)O)c(O)c2)cc1O [Ic-6, 2,2′-((3,3′-dihydroxy-[1,1′-biphenyl]-4,4′-diyl)bis(azanediyl))dibenzoic acid]

EC50 ([1]; read-out: EC50 in NCI-H929 (obatoclax)): 1.8 µM
EC50 ([2]; read-out: EC50 in SUDHL-6 (obatoclax)): 2.5 µM
EC50 (SUDHL-10 cell line; read-out: EC50 in SUDHL-10 (obatoclax)): 0.8 µM
SMILES: COC1=CC(c2cc3ccccc3[nH]2)=N/C1=C\c1[nH]c(C)cc1C [obatoclax, reference compound]

IC50 (Mcl-1; [6]): 0.027 µM
preference for inhibition of Mcl-1 vs. Bcl-xL (Mcl-1; ratio of FP IC50 values): ~5 fold
IC50 (Bcl-xL): 0.122 µM
SMILES: COC(=O)c1ccc(O)c2nc3c(CO)c(O)c(-c4c(O)c(CO)c5nc6c(O)ccc(C(=O)OC)c6nc5c4O)c(O)c3nc12 [II-20, dimethyl 1,1′,3,3′,6,6′-hexahydroxy-4,4′-bis(hydroxymethyl)-[2,2′-biphenazine]-9,9′-dicarboxylate]
EC50 ([2]; read-out: EC50, cell killing in SUDHL-6): 9.7 µM
EC50 (SUDHL-10 cell line; read-out: EC50, cell killing in SUDHL-10): > 25 µM

SMILES: CC(C)C[C@H](NC(=O)[C@H](Cc1ccccc1)NC(=O)c1cnccn1)B(O)O [bortezomib, reference compound]
average tumor volume at the end of the study (NCI H929 tumors): 1180 mm^3

IC50 (Mcl-1; [5]): < 50 µM
SMILES: COc1ccc(C(=O)O)c(Nc2ccc(-c3ccc(Nc4cc(OC)ccc4C(=O)O)c(OC)c3)cc2OC)c1 [Ic-18, 2,2′-((3,3′-dimethoxy-[1,1′-biphenyl]-4,4′-diyl)bis(azanediyl))bis(4-methoxybenzoic acid)]

IC50 (Mcl-1; [5]): < 50 µM
SMILES: COc1cc(-c2ccc(Nc3ccc(C)cc3C(=O)O)c(OC)c2)ccc1Nc1ccc(C)cc1C(=O)O [Ic-17, 6,6′-((3,3′-dimethoxy-[1,1′-biphenyl]-4,4′-diyl)bis(azanediyl))bis(3-methylbenzoic acid)]

SMILES: COc1cc(-c2ccc(Nc3ccccc3C(=O)O)c(OC)c2)ccc1Nc1ccccc1C(=O)O [Compound A, redoxal]
IC50 (Mcl-1; [6]): < 0.5 µM and 0.48 µM
IC50 (Bcl-xL): > 16 µM
EC50 ([1]; read-out: EC50, cell killing in NCI-H929): 1 µM
tolerability of the high dose [3]: well-tolerated
survival outcome vs vehicle control (CCRF-CEM cells): statistically significant; also recorded: significantly improved
white blood cells vs vehicle control (CCRF-CEM cells; after 14 days of treatment (Day 21), P<0.02 Students' t test): significantly reduced
mice still alive on Day 31 (CCRF-CEM cells; all vehicle mice died by Day 31): 60%
plasma clearance ([4]; 10 mg/kg): 1.3 mL/min/kg
plasma clearance ([4]; 19 mg/kg as printed): 1.3 mL/min/kg
half-life ([4]; 10 mg/kg): 2.1 h
half-life ([4]; 19 mg/kg as printed): 2.1 h
microsome stability (Microsome stability): excellent
